Results on one compound are retold here after patent US10919935B2, “Antimicrobial peptide derived from myxinidin peptide and uses thereof” (INDUSTRY-ACADEMIC COOPERATION FOUNDATION, CHOSUN UNIVERSITY, priority 2015, dated 2021).

In general, viability refers to the share of living cells, or the viability signal relative to a control. A low value points to a greater loss of cells.

Holding throughout (type): cell-based
The subject of series [1] is Pseudomonas aeruginosa ATCC 27853. On the procedure:
(§1) To compare the antimicrobial activity of the peptide produced by the method of Example 1, the inventors of the present invention measured the growth minimum inhibitory concentration (MIC), which is minimum concentration of the peptide showing no dissociation of bacterial cells.
(§2) Specifically, the bacterial strain described in the following Table 2 was purchased and cultured in each medium to a mid-log phase. Then, after dilution to bacterial cell concentration of 2×10^5 cells/100 μl, the cells were inoculated to a microtiter plate (NUNC, USA). Thereafter, myxinidin 1, myxinidin 2, or myxinidin 3 peptides which have been synthesized in Example 1 above was diluted, 1/2 times for each, with BSA (bovine serum albumin) solution in a 96-well plate. After adding the cells to a plate, the cells were cultured for 12 hours at 37° C. By using a microtiter plate reader (Merck Elisa reader, Germany), the absorbance was measured at a wavelength of 600 nm to determine the MIC value of each bacterial strain. As a control group, myxinidin as a mother peptide was subjected to the same processes as above and the MIC value of each bacterial strain was obtained.

Series [2] deals with Pseudomonas aeruginosa Isolated strain 3592. Here is the method: as §1, §2
The test system of series [3] is Salmonella typhimurium CCARM 8009. On the procedure:
as §1, §2

The test system of series [4] is Escherichia coli ATCC 25922. On the procedure:
as §1, §2

In series [5] the test system is Staphylococcus aureus CCARM 3114. On the procedure: as §1, §2
The test system of series [6] is Salmonella typhimurium KCTC 1926. Here is the method: as §1, §2
In series [7] the test system is Salmonella typhimurium CCARM 8013. On the procedure: as §1, §2
Series [8] concerns Escherichia coli CCARM 1229. Here is the method: as §1, §2
The test system of series [9] is Escherichia coli CCARM 1238. On the procedure:
as §1, §2

In series [10] the test system is Staphylococcus aureus CCARM 3709. On the procedure: as §1, §2
The test system of series [11] is Listeria monocytogenes KCTC 3710. On the procedure:
as §1, §2

The subject of series [12] is Staphylococcus aureus ATCC 25923. Here is the method:
as §1, §2

Series [13] relates to Pseudomonas aeruginosa Isolated strain 5018. On the procedure:
as §1, §2

The next series can be described thus: in vitro. Particulars: human, NHK cells (normal human keratinocytes). Here is the method: To determine the cytotoxicity of the peptide produced by the method of Example 1 in normal cell line, toxicity was measured by using NHK cells (Normal Human Keratinocyte cells).
Specifically, NHK cells which have been cultured in Epilife medium with 60 μM calcium (Gibco, USA) containing 10% HKGS (Human Keratinocyte Growth Supplement) (Gibco, USA) were aliquoted in a 96-well plate to have 1×10^4 cells per well. After culturing them for 24 hours, the cells were subjected to a treatment with myxinidin, myxinidin 1, myxinidin 2, or myxinidin 3 peptide, each at concentration of 3.125, 6.25, 12.5, or 25.0 μM/well, followed by reaction for 24 hours in a 5% CO2 incubator. After the culture, a reaction solution containing 5 mg/ml MTT (Thiazolyl Blue Tetrazolium Bromide) dissolved in physiological saline (PBS) was added in an amount of 20 μl to each well and allowed to react for 4 hours. After that, the supernatant was removed, and, by dissolving MTT crystals that are formed by adding 200 μl of DMSO, the absorbance at 560 nm was measured to determine the cell survival ability.

SMILES strings stand for the structures. Residues, ends and D or L forms follow the SMILES beside them.

Turning to `CC[C@H](C)[C@H](NC(=O)CN)C(=O)N[C@@H](Cc1c[nH]cn1)C(=O)N[C@@H](CC(=O)O)C(=O)N[C@H](C(=O)N[C@@H](CC(C)C)C(=O)N[C@@H](CCCCN)C(=O)N[C@@H](Cc1ccc(O)cc1)C(=O)NCC(=O)N[C@@H](CCCCN)C(=O)N1CCC[C@H]1C(=O)N[C@@H](CO)C(N)=O)[C@@H](C)CC` [Myxinidin, GIHDILKYGKPS-NH2] (H-GIHDILKYGKPS-NH2), the “Minimum growth inhibitory concentration” value in series [1], in series [2], in [3], in [4], in series [5] and in series [6] was above 32 µM each time. Also, the “Minimum growth inhibitory concentration” value in series [7], in series [8], in series [9], in series [10], in [11] and in [12] was above 32 µM in each case. In series [13], the “Minimum growth inhibitory concentration” value is above 32 µM. The compound also came in with a viability at 24 h, 3.125 µM in the series “in vitro” of 100%. Also, the viability at 24 h, 6.25 µM in the series “in vitro” amounted to 98%. Also, in the series “in vitro”, the viability at 24 h, 12.5 µM came out at 98%. Moreover, the viability at 24 h, 25 µM in “in vitro” stood at 95%.
